The source of these data is patent US8063221B2, “Aminoquinolones as GSK-3 inhibitors” (Kyorin Pharmaceutical Co., Ltd., priority 2006, dated 2011).

The structures appear in SMILES notation. In brackets after ≈: the same amount, converted by molar mass. Bounds are passed on as bounds.

The first experiment has as its system E. coli, ATCC8739. As to the kind of experiment: Antibacterial activity (MIC), E. coli. Type of experiment: cell-based. As to conditions: Escherichia coli, ATCC8739, Table 2; E. coli ATCC8739; read-out: Antimicrobial MIC [μM] E. Coli. The text has this: (§1) As used herein, a minimum inhibitory concentration (MIC) for bacterial growth assay is the lowest level of a compound needed to cause an inhibition to bacterial growth in culture medium. In certain embodiments, the antibacterial activity of compounds herein, measured as MIC.
(§2) In certain embodiments, GSK3 inhibitors provided herein are substantially free of antibacterial activity or having very low antibacterial activity. The antibacterial activity can be measured by methods known in the art by estimating a minimum inhibitory concentration (MIC) for test compounds. A MIC is the lowest level of a compound needed to cause an inhibition to bacterial growth in a culture medium. […] (Clinical and Laboratory Standards Institute. Methods for Dilution Antimicrobial Susceptibility Tests for Bacteria That Grow Aerobically; Approved Standard-Sixth Edition: CLSI document […]. CLSI, Wayne, Pa. (2003))
(§3) Antibacterial activity for E. coli, ATCC8739 andS. aureus Smith expressed as MIC (μM) is provided as follows: […]
One may read the MIC as the least concentration at which growth counts as inhibited. For `COc1c(NCCNc2ccccn2)c(F)c(N)c2c(=O)c(C(=O)O)c(C)n(C3CC3)c12` [Example 123], the MIC was over 50 µM.
Same read-out and setting: with `CC1COc2c(NCCNc3cc(F)cc(F)n3)c(F)c(N)c3c(=O)c(C(=O)O)cn1c23` (stereo not drawn) [compound 15] the figure was 0.5 to 10 µM (≈ 0.225 to 4.49 µg/mL); with `COc1c(NCCNc2ccccn2)c(F)c(NC(=O)C(F)(F)F)c2c(=O)c(C#N)cn(C3CC3)c12` [Example 141], 0.5 to 10 µM (≈ 0.252 to 5.04 µg/mL); with `O=C(O)c1cn(C2CC2)c2c(F)c(NCCNc3ccccn3)c(F)c(S)c2c1=O` [Example 131], 0.5 to 10 µM (≈ 0.216 to 4.32 µg/mL).
Still for that read-out and setting: for `C[C@H]1COc2c(NCCCC3CCCCC3)c(F)c(N)c3c(=O)c(C(=O)O)cn1c23` [Example 103] the value was 10 to 50 µM (≈ 4.17 to 20.9 µg/mL); for `CC1(C)COc2c(NCCNc3ccccn3)c(F)c(N)c3c(=O)c(C(=O)O)cn(c23)C1` [compound 24], 0.5 to 10 µM (≈ 0.221 to 4.41 µg/mL); for `COc1c(NCCNc2ccccn2)c(Cl)c(N)c2c(=O)c(C(=O)O)cn(C3CC3)c12` [Example 121], 10 to 50 µM (≈ 4.44 to 22.2 µg/mL).
The same measure, in the same setting: for `Nc1c(F)c(NCCNc2ccccn2)c2c3c1c(=O)c(C(=O)O)cn3[C@@H](Cc1ccccc1)CO2` [Example 120] the value was 10 to 50 µM (≈ 4.9 to 24.5 µg/mL).
As to `CC1(C)COc2c(NCCc3ccncc3)c(F)c(N)c3c(=O)c(C(=O)O)cn1c23` [compound 39], the MIC was over 50 µM.
Same read-out and setting: with `Nc1c(F)c(NCCNc2ccccn2)cc2c1c(=O)c(C(=O)O)cn2C1CC1` [Example 133] the figure was 0.5 to 10 µM (≈ 0.199 to 3.97 µg/mL); with `CC1(C)COc2c(NCCNc3ccccn3)c(F)c(N)c3c(=O)c(C(=O)O)cn1c23` [compound 16], over 50 µM.
Same read-out and setting: with `CC1COc2c(NCCNc3nc(F)c(F)cc3F)c(F)c(N)c3c(=O)c(C(=O)O)cn1c23` (stereo not drawn) [compound 13] the figure was 10 to 50 µM (≈ 4.67 to 23.4 µg/mL); with `CC1(C)COc2c(NCCCn3ccnc3)c(F)c(N)c3c(=O)c(C(=O)O)cn(c23)C1` [compound 26], 10 to 50 µM (≈ 4.29 to 21.5 µg/mL).
On the same count and under the same terms, with `COc1c(NCCNc2ccccn2)c(F)c(N)c2c(=O)c(C(=O)O)cn(C)c12` [Example 129] the figure was 10 to 50 µM (≈ 4.01 to 20.1 µg/mL); with `COc1c(NCCNc2ccc(C(=O)O)cn2)c(F)c(N)c2c(=O)c(C(=O)O)cn(C3CC3)c12` [Example 138], over 50 µM.

Staying with this experiment, now noted: Escherichia coli, ATCC8739, read-out: Antibacterial MIC (μM) E.Coli.
Consider `CC(C)OCCCNc1c(F)c(N)c2c(=O)c(C(=O)O)cn(C3CC3)c2c1F` [compound 17], for which the minimum inhibitory concentration (MIC) was in the range of 0.5 to 10 µM (≈ 0.198 to 3.95 µg/mL).
The same measure, in the same setting: with `COc1c(NCCCc2ccccc2)c(F)c(N)c2c(=O)c(C(=O)O)cn(C3CCCC3)c12` [compound 79] the figure was 10 to 50 µM (≈ 4.54 to 22.7 µg/mL).

The next experiment relates to S. aureus Smith. As to the kind of experiment: Antibacterial activity (MIC), S. aureus. Type of experiment: cell-based. As to conditions: Staphylococcus aureus, Table 2; S. aureus Smith; read-out: Antimicrobial MIC [μM] S. aureus.
From the text: as §1, §2, §3
Take `COc1c(NCCNc2ccccn2)c(F)c(N)c2c(=O)c(C(=O)O)c(C)n(C3CC3)c12` [Example 123]: the MIC was over 50 µM.
Still for that read-out and setting: with `CC1COc2c(NCCNc3cc(F)cc(F)n3)c(F)c(N)c3c(=O)c(C(=O)O)cn1c23` (stereo not drawn) [compound 15] the figure was 0.5 to 10 µM (≈ 0.225 to 4.49 µg/mL); with `COc1c(NCCNc2ccccn2)c(F)c(NC(=O)C(F)(F)F)c2c(=O)c(C#N)cn(C3CC3)c12` [Example 141], 0.5 to 10 µM (≈ 0.252 to 5.04 µg/mL); with `O=C(O)c1cn(C2CC2)c2c(F)c(NCCNc3ccccn3)c(F)c(S)c2c1=O` [Example 131], 0.5 to 10 µM (≈ 0.216 to 4.32 µg/mL).
The same measure, in the same setting: for `C[C@H]1COc2c(NCCCC3CCCCC3)c(F)c(N)c3c(=O)c(C(=O)O)cn1c23` [Example 103] the value was 10 to 50 µM (≈ 4.17 to 20.9 µg/mL); for `CC1(C)COc2c(NCCNc3ccccn3)c(F)c(N)c3c(=O)c(C(=O)O)cn(c23)C1` [compound 24], 0.5 to 10 µM (≈ 0.221 to 4.41 µg/mL).
Still for that read-out and setting: for `COc1c(NCCNc2ccccn2)c(Cl)c(N)c2c(=O)c(C(=O)O)cn(C3CC3)c12` [Example 121] the value was 0.5 to 10 µM (≈ 0.222 to 4.44 µg/mL); for `Nc1c(F)c(NCCNc2ccccn2)c2c3c1c(=O)c(C(=O)O)cn3[C@@H](Cc1ccccc1)CO2` [Example 120], 10 to 50 µM (≈ 4.9 to 24.5 µg/mL); for `CC1(C)COc2c(NCCc3ccncc3)c(F)c(N)c3c(=O)c(C(=O)O)cn1c23` [compound 39], 10 to 50 µM (≈ 4.12 to 20.6 µg/mL).
For `Nc1c(F)c(NCCNc2ccccn2)cc2c1c(=O)c(C(=O)O)cn2C1CC1` [Example 133], the MIC is under 0.5 µM.
On the same count and under the same terms, with `CC1(C)COc2c(NCCNc3ccccn3)c(F)c(N)c3c(=O)c(C(=O)O)cn1c23` [compound 16] the figure was over 50 µM.
Same read-out and setting: for `CC1COc2c(NCCNc3nc(F)c(F)cc3F)c(F)c(N)c3c(=O)c(C(=O)O)cn1c23` (stereo not drawn) [compound 13] the value was 0.5 to 10 µM (≈ 0.234 to 4.67 µg/mL); for `CC1(C)COc2c(NCCCn3ccnc3)c(F)c(N)c3c(=O)c(C(=O)O)cn(c23)C1` [compound 26], 10 to 50 µM (≈ 4.29 to 21.5 µg/mL); for `COc1c(NCCNc2ccccn2)c(F)c(N)c2c(=O)c(C(=O)O)cn(C)c12` [Example 129], 10 to 50 µM (≈ 4.01 to 20.1 µg/mL).
Same read-out and setting: for `COc1c(NCCNc2ccc(C(=O)O)cn2)c(F)c(N)c2c(=O)c(C(=O)O)cn(C3CC3)c12` [Example 138] the value was over 50 µM.

Staying with this experiment, now noted: Staphylococcus aureus, read-out: Antibacterial MIC (μM) S. aureus Smith.
With `CC(C)OCCCNc1c(F)c(N)c2c(=O)c(C(=O)O)cn(C3CC3)c2c1F` [compound 17], the MIC lay within 0.5 to 10 µM (≈ 0.198 to 3.95 µg/mL).
Turning to `COc1c(NCCCc2ccccc2)c(F)c(N)c2c(=O)c(C(=O)O)cn(C3CCCC3)c12` [compound 79], the minimal inhibitory concentration (MIC) lay in the range of 10 to 50 µM (≈ 4.54 to 22.7 µg/mL).

For a further experiment, the target named is T1, recombinant full-length human GSK3β (Homo sapiens, UniProt P49841).
T1 construct: recombinant full-length human GSK3β (Upstate); purchased Upstate
T1 sequence (P49841 whole entry): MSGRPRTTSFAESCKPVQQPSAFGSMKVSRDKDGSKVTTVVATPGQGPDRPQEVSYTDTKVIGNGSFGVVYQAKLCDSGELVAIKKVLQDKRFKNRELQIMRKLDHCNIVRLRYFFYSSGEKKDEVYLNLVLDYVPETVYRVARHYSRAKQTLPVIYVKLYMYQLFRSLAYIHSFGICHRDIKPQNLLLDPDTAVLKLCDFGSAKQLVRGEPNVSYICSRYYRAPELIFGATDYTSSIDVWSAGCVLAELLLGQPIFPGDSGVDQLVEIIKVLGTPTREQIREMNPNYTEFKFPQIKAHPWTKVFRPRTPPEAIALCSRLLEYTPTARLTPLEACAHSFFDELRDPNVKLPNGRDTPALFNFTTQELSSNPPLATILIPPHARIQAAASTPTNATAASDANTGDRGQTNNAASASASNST
As to the kind of experiment: Luciferase-coupled cell-free GSK3β kinase assay. Type of experiment: biochemical. As to conditions: Table 1. In a few lines: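 GSK3β, 10-25 ng, was incubated with compound for 1 h at 30° C in MOPS pH 7.0 buffer containing 62.5 μM phospho-glycogen synthase peptide-2 and 5 μM ATP. Remaining ATP was read by KinaseGlo luminescence, and IC50 was fitted from % inhibition relative to maximal inhibition.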
Usually IC50 stands for the point on the concentration scale where inhibition reaches its midpoint. For the molecule `CC(C)OCCCNc1c(F)c(N)c2c(=O)c(C(=O)O)cn(C3CC3)c2c1F` [compound 17], the IC50 was in the range of 100 to 500 nM.
Same read-out and setting: with `COc1c(NCCCc2ccccc2)c(F)c(N)c2c(=O)c(C(=O)O)cn(C3CCCC3)c12` [compound 79] the figure was 100 to 500 nM.

Staying with this experiment, now noted: Table 2.
For the molecule `COc1c(NCCNc2ccccn2)c(F)c(N)c2c(=O)c(C(=O)O)c(C)n(C3CC3)c12` [Example 123], the IC50 is under 100 nM.
Same read-out and setting: for `CC1COc2c(NCCNc3cc(F)cc(F)n3)c(F)c(N)c3c(=O)c(C(=O)O)cn1c23` (stereo not drawn) [compound 15] the value was under 100 nM.
Still for that read-out and setting: for `COc1c(NCCNc2ccccn2)c(F)c(NC(=O)C(F)(F)F)c2c(=O)c(C#N)cn(C3CC3)c12` [Example 141] the value was under 100 nM.
On the same count and under the same terms, for `O=C(O)c1cn(C2CC2)c2c(F)c(NCCNc3ccccn3)c(F)c(S)c2c1=O` [Example 131] the value was under 100 nM; for `C[C@H]1COc2c(NCCCC3CCCCC3)c(F)c(N)c3c(=O)c(C(=O)O)cn1c23` [Example 103], under 100 nM; for `CC1(C)COc2c(NCCNc3ccccn3)c(F)c(N)c3c(=O)c(C(=O)O)cn(c23)C1` [compound 24], 100 to 500 nM.
For the molecule `COc1c(NCCNc2ccccn2)c(Cl)c(N)c2c(=O)c(C(=O)O)cn(C3CC3)c12` [Example 121], the IC50 was under 100 nM.
The same measure, in the same setting: with `Nc1c(F)c(NCCNc2ccccn2)c2c3c1c(=O)c(C(=O)O)cn3[C@@H](Cc1ccccc1)CO2` [Example 120] the figure was 100 to 500 nM; with `CC1(C)COc2c(NCCc3ccncc3)c(F)c(N)c3c(=O)c(C(=O)O)cn1c23` [compound 39], 100 to 500 nM.
Still for that read-out and setting: for `Nc1c(F)c(NCCNc2ccccn2)cc2c1c(=O)c(C(=O)O)cn2C1CC1` [Example 133] the value was under 100 nM.
Same read-out and setting: with `CC1(C)COc2c(NCCNc3ccccn3)c(F)c(N)c3c(=O)c(C(=O)O)cn1c23` [compound 16] the figure was under 100 nM; with `CC1COc2c(NCCNc3nc(F)c(F)cc3F)c(F)c(N)c3c(=O)c(C(=O)O)cn1c23` (stereo not drawn) [compound 13], under 100 nM; with `CC1(C)COc2c(NCCCn3ccnc3)c(F)c(N)c3c(=O)c(C(=O)O)cn(c23)C1` [compound 26], under 100 nM.
In the case of `COc1c(NCCNc2ccccn2)c(F)c(N)c2c(=O)c(C(=O)O)cn(C)c12` [Example 129], the IC50 was 100 to 500 nM.
Same read-out and setting: for `COc1c(NCCNc2ccc(C(=O)O)cn2)c(F)c(N)c2c(=O)c(C(=O)O)cn(C3CC3)c12` [Example 138] the value was under 100 nM.
